This note sets out measurements from patent US20260345594A1, “Methods and Compositions for Controlling Jet Lag, Chronotype, or Circadian Rhythm” (University of Pittsburgh - Of the Commonwealth System of …, priority 2022, published 2026).

For assay [1], the target named is T1, AVPR1a (human vasopressin 1a receptor, V1AR) (Homo sapiens, UniProt P37288).
T1 construct: V2 tail; expressed in transfected cells; host or cells: HTLA cells (HEK293 cell line with tTA-dependent luciferase reporter and β-arrestin2-TEV fusion)
The assay is described as follows: AVPR1a Presto-Tango luciferase screen. The format is cell-based. The source says: (§1) Presto-Tango Assay: Empty Tango plasmid was generated from Addgene plasmid #66225. Melanopsin was amplified by pcr from pAAV-GFAP104-melanopsin-mCherry (Addgene plasmid #122630) and AVPR1a from hV1aR-GFP (Addgene plasmid #67846) and cloned to generate OPN4- and AVPR1a-Tango plasmid. HTLA cells (a HEK293 cell line stably expressing a tTA-dependent luciferase reporter and a β-arrestin2-TEV fusion gene—a gift from Bryan Roth) was transfected with OPN4-Tango or AVPR1A-Tango plasmids. The HTLA Cells are grown in DMEM supplemented with 10% FBS, 100 U/ml penicillin and 100 μg/ml streptomycin, 2 μg/ml puromycin and 100 μg/ml hygromycin B (HTLA medium) in a humidified atmosphere at 37 °C in 5% CO2 (HTLA Medium).
(§2) Luciferase activity was measured using Bright-Glo Luciferase (Promega #E2160) assay.
(§3) Day 1: HTLA cells were plated in at 9 to 10×10^6 cells per 100 mm cell culture dish in HTLA Medium.
(§4) Day 2: The cells were transfected using the Polyethylenimine method. […]
(§5) Day 5: The medium containing drug solutions were removed from the wells (by aspiration or shaking), and 50 μL per well of Bright-Glo solution (Promega) diluted 10-fold in filter-sterilized assay buffer, which consisted of 20 mM HEPES and 1×HBSS at pH 7.4 and 1 mM Glucose were added to each well. After incubation for 15 to 20 minutes at room temperature, luminescence was counted in a BioTek-Flx-800 luminescence counter.

For the next assay, the target named is T2, Melanopsin (Homo sapiens, UniProt Q9UHM6).
T2 construct: V2 tail; expressed in transfected cells; host or cells: HTLA cells (HEK293 cell line with tTA-dependent luciferase reporter and β-arrestin2-TEV fusion)
T2 sequence (Q9UHM6 1-478): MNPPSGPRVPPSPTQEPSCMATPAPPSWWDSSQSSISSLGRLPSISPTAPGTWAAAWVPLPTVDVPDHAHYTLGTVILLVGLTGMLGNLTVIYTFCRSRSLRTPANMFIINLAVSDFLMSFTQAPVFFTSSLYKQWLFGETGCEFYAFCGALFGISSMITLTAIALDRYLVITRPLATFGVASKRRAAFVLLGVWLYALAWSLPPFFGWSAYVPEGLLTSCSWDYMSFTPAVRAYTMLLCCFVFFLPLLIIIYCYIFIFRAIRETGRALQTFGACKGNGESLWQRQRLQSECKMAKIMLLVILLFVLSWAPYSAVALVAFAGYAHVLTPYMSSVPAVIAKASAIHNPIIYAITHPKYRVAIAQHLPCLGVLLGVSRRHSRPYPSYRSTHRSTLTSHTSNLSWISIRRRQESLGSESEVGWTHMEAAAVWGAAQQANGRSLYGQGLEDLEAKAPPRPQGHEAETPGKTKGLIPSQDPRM
The assay is described as follows: Melanopsin (OPN4) Presto-Tango luciferase screen. The class given is cell-based. As to conditions: HTLA cells, LED light, agonist alone, read-out: EC50 of receptor activation by the ligand.
From the text: as §1, §2, §3, §4, §5

T1 sequence (P37288 whole entry, the tested form may be a part): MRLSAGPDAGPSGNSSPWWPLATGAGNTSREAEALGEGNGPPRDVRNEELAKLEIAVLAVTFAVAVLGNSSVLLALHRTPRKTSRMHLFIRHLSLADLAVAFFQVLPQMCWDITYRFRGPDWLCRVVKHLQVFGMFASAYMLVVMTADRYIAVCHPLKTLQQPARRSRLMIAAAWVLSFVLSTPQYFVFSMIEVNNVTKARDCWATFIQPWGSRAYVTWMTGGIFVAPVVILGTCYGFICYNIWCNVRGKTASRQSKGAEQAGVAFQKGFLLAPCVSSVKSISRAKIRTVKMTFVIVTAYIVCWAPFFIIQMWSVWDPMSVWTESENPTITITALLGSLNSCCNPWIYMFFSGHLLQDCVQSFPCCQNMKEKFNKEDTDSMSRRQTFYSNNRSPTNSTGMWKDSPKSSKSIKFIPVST

For the compound `Cc1ccc2[nH]cc(CCNC(=O)Cn3c(=O)c(=O)n(Cc4ccccc4)c4ccccc43)c2c1` [MolPort-007-880-661], in assay [1] (5 nM Arginine Vasopressin, 16 hrs illumination (FIG. 9), inhibitor, read-out: EC50 (allosteric inhibition of AVPR1a, ratio of luciferase activity over positive control)), the IC50 stood at 360 nM. Also, the “V1AR inhibition validated by in vitro experiments” value in assay [1] (in words) is “effective V1AR inhibitors”.
Consider `CC1=C(/C=C/C(C)=C\C=C\C(C)=C\C=O)C(C)(C)CCC1` [9-cis-Retinol], for which the EC50 (usually the midpoint of the concentration-response curve) on Melanopsin was about 250 nM.
